Reference: the supplement of paper PMC11451515

Assays:
Assay in all cases: AUC of viability dose-response curve (% viability x log10 dose units); higher = less sensitive
Details in all cases: 48 h
P12-Ichikawa = system: P12-Ichikawa
Outline: (§1)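 Leukemia cells adapted to each medium were seeded at 500 or 1000 cells/well in 1536-well plates and dosed with library compounds in DMSO at 11 threefold doses from 47 μM to 0.79 nM for 48 h at 37°C. CellTiter-Glo One luminescence was normalised per plate to DMSO and cell-free wells, then fitted with a four-parameter log-logistic model over log10 doses. Area under the curve was taken from this fit by the trapezoidal rule, with curves above full viability scaled and curves failing quality control removed.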

SEM cells = system: SEM cells
Outline: as §1

NOMO1 = system: NOMO1
Outline: as §1

[1] = RPMI 5 mM glucose + 10% dialyzed FBS

| Compound | AUC of viability dose-response curve (P12-Ichikawa; HPLM + 10% dialyzed FBS) | AUC of viability dose-response curve (P12-Ichikawa; RPMI 5 mM glucose + 10% FBS) | AUC of viability dose-response curve (P12-Ichikawa; [1]) | AUC of viability dose-response curve (SEM cells; HPLM + 10% dialyzed FBS) | AUC of viability dose-response curve (SEM cells; RPMI 5 mM glucose + 10% FBS) | AUC of viability dose-response curve (SEM cells; [1]) | AUC of viability dose-response curve (NOMO1; HPLM + 10% dialyzed FBS) | AUC of viability dose-response curve (NOMO1; RPMI 5 mM glucose + 10% FBS) | AUC of viability dose-response curve (NOMO1; [1]) |
| --- | --- | --- | --- | --- | --- | --- | --- | --- | --- |
| CC(C)[C@H](C(=O)Nc1ccc(C(=O)NO)cc1)c1ccccc1 | 351 | 346 | 350 | 340 | 346 | 342 | 361 | 368 | 364 |
| Nc1cc(N2CCCCC2)nc(N)[n+]1[O-] | 469 | 468 | 475 | 451 | 451 | 455 | 451 | 461 | 465 |
| CC(=O)OCC(=O)[C@@]1(O)CC[C@H]2[C@@H]3CCC/4=C/C(=O)/C=C\[C@]4(C)[C@H]3[C@@H](O)C[C@]12C | – | – | – | 383 | 425 | 428 | 439 | 450 | 472 |
| CC(C)(C)[C@]1(O)C[C@@H]2OC(=O)C[C@@]23C(=O)O[C@@H]2OC(=O)[C@H](O)C213 (some centres not stated) | 447 | 458 | 452 | 471 | 444 | 436 | 452 | 436 | 452 |
| Cc1n[nH]c2ccc(-c3cncc(OC[C@@H](N)Cc4ccccc4)c3)cc12 | 371 | 335 | 355 | 312 | 341 | 347 | 324 | 365 | 348 |
